Paper PMC11854949, “Discovery of Novel Pyridin-2-yl Urea Inhibitors Targeting ASK1 Kinase and Its Binding Mode by Absolute Protein–Ligand Binding Free Energy Calculations” (International Journal of Molecular Sciences, 2025)

Biological target: T1, recombinant human ASK1 protein (catalytic domain, residues 659–951) (Homo sapiens, UniProt Q99683)
T1 construct: The catalytic domain of ASK1 (encoding residues 659–951) was modified to include an N-terminal 6XHis tag; 6XHis (N); made in house; host or cells: E. coli Rosetta2 (DE3)
T1 sequence (Q99683 659-951): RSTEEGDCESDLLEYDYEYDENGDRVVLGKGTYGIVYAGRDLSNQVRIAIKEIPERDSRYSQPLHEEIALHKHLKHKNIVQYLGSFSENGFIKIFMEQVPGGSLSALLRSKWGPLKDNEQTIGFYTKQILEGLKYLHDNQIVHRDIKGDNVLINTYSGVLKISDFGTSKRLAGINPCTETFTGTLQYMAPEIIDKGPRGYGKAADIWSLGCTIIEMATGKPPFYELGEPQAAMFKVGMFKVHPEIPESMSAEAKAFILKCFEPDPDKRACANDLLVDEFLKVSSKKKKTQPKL
Test: ASK1 enzyme inhibition assay (ADP-Glo)
Type: biochemical
Conditions: for ΔGexp: estimated from IC50 using ΔG = RTln(IC50), 298 K; for IC50: mean ± SEM, n = 3 experiments, 25 μM ATP, 0.1 μg/μL MBP, ADP-Glo
Method: The recombinant human ASK1 protein was expressed in E. coli Rosetta2 (DE3) in LB medium, containing 100 µg/mL ampicillin and 34 µg/mL chloramphenicol. A total of 2 mL overnight culture was diluted 100-fold into 200 mL LB and grown at 37 °C with shaking at 200 rpm until the OD600 reached 0.8. Subsequently, 0.5 mM IPTG was added, and protein expression was induced overnight at 20 °C.
The IC50 value for each inhibitor was determined using the ADP-Glo™ protocol. Inhibitors were prepared as a series of 1:1 serial dilutions (final concentration of 10 μM) in 40 mM HEPES buffer (pH 7.5) containing 20 mM MgCl2, 0.1 mg/mL BSA, 50 μM DTT and 5% DMSO.
The reaction was terminated by adding 5 μL of ADP-Glo reagent and incubated at room temperature for 40 min. Then, 10 μL of kinase detection reagent was added, and the mixture was incubated for an additional 30 min. Luminescence was measured using a VICTOR Nivo microplate reader (PerkinElmer, Waltham, MA, USA), and the concentration–response curve and half-maximal inhibitory concentration (IC50) values were obtained by fitting the data using GraphPad Prism (v.9.0) software.

| Compound | ΔGexp | IC50 |
| --- | --- | --- |
| CC(C)n1cnnc1-c1cccc(NC(=O)N2CCCC2)n1 [Compound 1] | -7.41 ± 0.01 kcal/mol | 3630 ± 72.2 nM |
| CC(C)n1cnnc1-c1cccc(NC(=O)N2CCc3ccc(OC(F)(F)F)cc32)n1 [Compound 3] | -8.21 ± 0.01 kcal/mol | 954 ± 21.5 nM |
| CC(C)n1cnnc1-c1cccc(NC(=O)N2CCc3cc(C(F)(F)F)ccc32)n1 [Compound 5] | -8.85 ± 0.02 kcal/mol | 319 ± 10.9 nM |

The remaining lines, values ahead:

| ΔGexp | IC50 | Compound |
| --- | --- | --- |
| -12.02 ± 0.11 kcal/mol | 1.55 ± 0.27 nM | COc1ccc2c(c1)N(C(=O)Nc1cccc(-c3nncn3C(C)C)n1)CC2 [Compound 2] |
| -10.01 ± 0.07 kcal/mol | 45.3 ± 4.82 nM | COc1ccc2c(c1)CCN2C(=O)Nc1cccc(-c2nncn2C(C)C)n1 [Compound 4] |
| -11.64 ± 0.06 kcal/mol | 2.92 ± 0.28 nM | CC(C)n1cnnc1-c1cccc(NC(=O)N2CCCc3ccccc32)n1 [Compound 6] |
| -7.21 ± 0.06 kcal/mol | 5110 ± 507 nM | CC(C)n1cnnc1-c1cccc(NC(=O)N2CCc3ccccc3C2)n1 [Compound 7] |
